Converted amounts (≈) assume the structure as drawn.

The test system of one data set is C. glabrata. Put plainly: Yeast susceptibility testing (EUCAST E.DEF 7.3.2 broth microdilution), C. glabrata. In kind it is cell-based. As to conditions: Nakaseomyces glabratus, C. glabrata isolates (n=8), 24 hours read, MIC = growth inhibited by ≥50% (Amphotericin ≥90%). The procedure: (§1) AST was used to determine a Minimum Inhibitory Concentration (MIC) value for each antifungal agent on each strain of Candida. Three comparator drugs were also tested. This allowed the effectiveness of RO-101 gel to be compared to common antifungal drugs often used to treat VVC. Antifungal agents and their concentrations were as follows: RO-101 gel (1×, 2×, 10×, 20×: 1×=0.005%, 2×=0.01%, 10×=0.05% and 20×=0.1% Gox) (1 to 500 mg/L), SurgihoneyRO (1 to 500 mg/L), RO-101 gel 0% negative control (0% Gox) (1 to 500 mg/L), Fluconazole (0.125 to 64 mg/L), Itraconazole (0.015 to 8 mg/L) and Amphotericin (0.015 to 8 mg/L). The EUCAST E.DEF 7.3.2 (EUCAST, 2022a) method for yeast susceptibility testing was followed where possible.
(§2) Stock solutions of drugs were prepared with RPMI 1640 medium with 2% glucose. This was prepared by dissolving 20.8 g of RPMI 1640 powder (Sigma, Cat. No. R-6504), 69.1 g of morpholinopropanesulfonic acid (MOPS) (Melford, Cat. No. B2003) and 36 g of glucose (Sigma, Cat. No. G7528) in 800 ml of pharmacy water (Appleton Woods). 10M sodium hydroxide (Sigma, S8045) was added to adjust the pH to 7, and then the RPMI was filter sterilised. De Man, Rogosa & Sharpe (MRS) broth was used to grow the Lactobacillus isolates. MRS broth was prepared by dissolving 51 g of MRS powder (Sigma, 69966) in 1 litre of pharmacy water. 1 ml of Tween 80 (Sigma, P8074) was then added. The mixture was then sterilized by autoclaving at 121° C. for 15 minutes.
(§3) All yeast isolates selected were grown from high vaginal swab samples and were of the Candida genus. Species chosen included C. albicans (n=5), C. glabrata (n=8), C. krusei (n=4), C. tropicalis (n=3) and C. parapsilosis (n=4). These isolates were identified to a species level by testing for the presence of a germ tube, biochemical testing, what temperature the isolate grew in, the colour when streaked on chrome agar, and in some cases the isolates DNA was sequenced.
(§4) The isolates were streaked for single colonies on a SAB plate, using a sterile metal loop. They were then incubated at 35° C. for 48 hours prior to susceptibility testing. […]

In the next data set the test system is C. albicans. Put plainly: Yeast susceptibility testing (EUCAST E.DEF 7.3.2 broth microdilution), C. albicans. In kind it is cell-based. The settings on record: Candida albicans; C. albicans isolates (n=5); 24 hours read; MIC = growth inhibited by ≥50% (Amphotericin ≥90%). As for the experimental part: as §1
as §2, with “The mixture was then sterilized by autoclaving at 121° C. for 15 minutes.” left out

Data set [1] relates to strains of Candida causing VVC. Put plainly: Yeast susceptibility testing, all Candida species tested (overall comparisons). In kind it is cell-based. As to conditions: versus all of the gel concentrations. The procedure: as §1
as §2, with “The mixture was then sterilized by autoclaving at 121° C. for 15 minutes.” left out

The conditions of data set [2]: at 20° C. and 1 atm; cited from earlier work.
The next data set deals with C. parapsilosis. Nature of the data set: Yeast susceptibility testing (EUCAST E.DEF 7.3.2 broth microdilution), C. parapsilosis. The settings on record: Lodderomyces parapsilosis, C. parapsilosis isolates (n=4), 24 hours read, MIC = growth inhibited by ≥50%. It counts as cell-based. The procedure:
as §1, §2, §3, §4

In a further data set the test system is C. krusei. Put plainly: Yeast susceptibility testing (EUCAST E.DEF 7.3.2 broth microdilution), C. krusei. It counts as cell-based. As to conditions: Pichia kudriavzevii, C. krusei isolates (n=4), 24 hours read, MIC = growth inhibited by ≥50%. As for the experimental part:
as §1, §2, §3, §4

The test system of another data set is C. tropicalis. Nature of the data set: Yeast susceptibility testing (EUCAST E.DEF 7.3.2 broth microdilution), C. tropicalis. The settings on record: Candida tropicalis, C. tropicalis isolates (n=3), 24 hours read, MIC = growth inhibited by ≥50%. It counts as cell-based. As for the experimental part: as §1
as §2, with “The mixture was then sterilized by autoclaving at 121° C. for 15 minutes.” left out

On to `C[C@@H]1[C@H](O)[C@@H](C)/C=C/C=C/C=C/C=C/C=C/C=C/C=C/[C@H](O[C@@H]2O[C@H](C)[C@@H](O)[C@H](N)[C@@H]2O)C[C@@H]2O[C@](O)(C[C@@H](O)C[C@@H](O)[C@H](O)CC[C@@H](O)C[C@@H](O)CC(=O)O[C@H]1C)C[C@H](O)[C@H]2C(=O)O` [Amphotericin], for which, in the data set with C. glabrata, the MIC50 was 0.0625 µg/mL (≈ 0.0676 µM) and the MIC90 is 0.125 µg/mL (≈ 0.135 µM). Besides, the MIC in the data set on C. glabrata (read-out: MIC geometric mean) is 0.081 µg/mL (≈ 0.0877 µM). In the data set on C. albicans, this compound yielded an MIC50 of 0.0625 µg/mL (≈ 0.0676 µM) and an MIC90 of 0.0625 µg/mL (≈ 0.0676 µM). The “MIC50, MIC90 and geometric means in comparison with RO-101 Gel” value in data set [1] is “lower MIC50, MIC90 and geometric means than all of the gel concentrations”.
For `O=C(CO)[C@@H](O)[C@H](O)[C@H](O)CO` [Fructose], in data set [2], the solubility result is “about 375 g/100 g water”.
In the case of `CCC(C)n1ncn(-c2ccc(N3CCN(c4ccc(OCC5COC(Cn6cncn6)(c6ccc(Cl)cc6Cl)O5)cc4)CC3)cc2)c1=O` (stereo not drawn) [Itraconazole], the MIC50 in the data set on C. parapsilosis is 0.015 µg/mL (≈ 0.0213 µM); in the data set with C. krusei, 0.125 µg/mL (≈ 0.177 µM). Besides, the figures for the MIC90 with C. parapsilosis, in the data set on C. krusei and against C. tropicalis were 0.125 µg/mL (≈ 0.177 µM), 0.25 µg/mL (≈ 0.354 µM) and 0.0625 µg/mL (≈ 0.0886 µM), respectively. The minimum inhibitory concentration (MIC) in the data set on C. parapsilosis (read-out: MIC geometric mean) amounted to 0.025 µg/mL (≈ 0.0354 µM); in the data set with C. krusei (read-out: MIC geometric mean), 0.177 µg/mL (≈ 0.251 µM); in the data set with C. tropicalis (read-out: MIC geometric mean), 0.031 µg/mL (≈ 0.0439 µM).

Source of the values: patent publication US20260027258A1, “Antimicrobial Compositions” (Matoke Holdings Limited, priority 2022, published 2026).
